Laboratory results taken from patent US20060069132A1, “Azolecarboxamide herbicides” (priority 2004, published 2006).

Legend:
large crabgrass = assay: Test A pre-/postemergence herbicide test; type: in vivo, Digitaria sanguinalis
How it was run: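 Visual injury scores on a 0–100 scale (100 = complete control) taken about ten days post-treatment in greenhouse against untreated controls; dash means no result. Treatments: preemergence soil spray and postemergence spray to runoff on one- to two-leaf plants 2 to 10 cm tall, surfactant-containing formulation.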

rice [1] = assay: Test B pre-/postemergence herbicide test; type: in vivo, Oryza sativa; details: preemergence; for Plant response rating, Rice: 500 g ai/ha, visual rating 0-100, 0 no effect, 100 complete control
How it was run: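 Seeds were planted and treated preemergence with compounds formulated in a non-phytotoxic solvent mixture containing surfactant, while plants at the 1- to 4-leaf stage (2 to 18 cm) received postemergence sprays. Flooded paddy plants were grown to the 2-leaf stage. After 13 to 15 days in a greenhouse, injury was visually rated 0–100 against untreated controls.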

blackgrass = assay: Test B postemergence herbicide test; type: in vivo, Alopecurus myosuroides; details: postemergence, visual rating, scale 0 (no effect) to 100 (complete control)
How it was run: (§1)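 Visual control ratings, 0–100 versus untreated controls, taken after 13 to 15 days in the greenhouse. Blackgrass received a postemergence spray at the 1- to 4-leaf stage (2–18 cm); ducksalad, umbrella sedge and barnyardgrass were flooded-paddy treated at 2 leaves.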

ducksalad = assay: Test B flooded paddy test; type: in vivo, Heteranthera limosa; details: 1000 g ai/ha, visual rating, scale 0 to 100 (0 no effect, 100 complete control), 13 to 15 days
How it was run: as §1

cocklebur = assay: Test C pre-/postemergence herbicide test; type: in vivo, Xanthium strumarium
How it was run: (§2)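 Visual ratings on a 0–100 scale (100 = complete control) made versus untreated controls after 12 to 14 greenhouse days. Test chemicals, formulated in surfactant-containing non-phytotoxic solvent, applied preemergence to planted seeds or postemergence to 1- to 4-leaf plants (2 to 18 cm).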

giant foxtail = assay: Test C pre-/postemergence herbicide test; type: in vivo, Setaria faberi
How it was run: as §2

johnsongrass = assay: Test C pre-/postemergence herbicide test; type: in vivo, Sorghum halepense
How it was run: as §2

common ragweed = assay: Test C pre-/postemergence herbicide test; type: in vivo, Ambrosia elatior; set-up: key to Plant response rating, Ragweed: 0 = no effect, 100 = complete control
How it was run: as §2

[2] = system: common (oilseed) sunflower; assay: Test C pre-/postemergence herbicide test; type: in vivo, Helianthus annuus
How it was run: as §2

rice [3] = assay: Test C flooded paddy test; type: in vivo, Oryza sativa; details: for Plant response rating, Rice: 500 g ai/ha, visual rating after 12 to 14 days
How it was run: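 Injury scored visually against controls on a 0 (no effect) to 100 (complete control) scale, 12 to 14 days after treatment in greenhouse. Flooded paddy plants treated at 2-leaf stage; postemergence plants at 1- to 4-leaf stage, 2 to 18 cm tall.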

[4] = 125 g ai/ha, scale 0 (no effect) to 100 (complete control), visual, 12 to 14 days, preemergence
[5] = 250 g ai/ha, scale 0 to 100 (0 no effect, 100 complete control), visual, 12 to 14 days, preemergence
[6] = 62 g ai/ha, scale 0 to 100 (0 no effect, 100 complete control)
[7] = 125 g ai/ha, scale 0 to 100 (0 no effect, 100 complete control)
[8] = 250 g ai/ha, scale of 0 to 100, 0 is no effect, 100 is complete control
[9] = scale 0 to 100 (0 no effect, 100 complete control)
[10] = 62 g ai/ha, preemergence, scale 0 to 100
[11] = 250 g ai/ha, scale 0-100, preemergence
[12] = Preemergence, 500 g ai/ha, scale 0 to 100, 0 no effect, 100 complete control

In the case of `CCn1nc(C(C)(C)C)cc1C(=O)Nc1cccc(SC)c1` [Compound 131], the “Crabgrass, Large plant response rating” value (large crabgrass; Postemergence, 250 g ai/ha, 0 to 100 scale, 0 no effect, 100 complete control) is reported as 20, the “Plant response rating, Crabgrass, Large” value (large crabgrass; Postemergence, 1000 g ai/ha, 0 to 100 scale, 0 no effect, 100 complete control) is reported as 40 and the “Crabgrass, Large plant response rating” value (large crabgrass; Preemergence, 1000 g ai/ha, visual rating, 0 to 100 scale (0 no effect, 100 complete control)) is reported as 85. The “Crabgrass, Large plant response rating” value (large crabgrass; preemergence, 250 g ai/ha, visual injury, 0 to 100 scale (0 no effect, 100 complete control)) was 20, the “Plant response rating, Rice” value (rice [1]) was 50 and the “Blackgrass plant response rating” value (blackgrass; 125 g ai/ha) was 10. For the same molecule, the “Blackgrass plant response rating” value (blackgrass; 500 g ai/ha) was 20, the “Ducksalad plant response rating” value (ducksalad) was 80 and the “Plant response rating (0 = no effect, 100 = complete control), Cocklebur” value (cocklebur; 62 g ai/ha, preemergence) was 0. For the same molecule, the “Plant response rating, Cocklebur” value (cocklebur; [4]) was 20, the “Plant response rating, Cocklebur” value (cocklebur; [5]) was 25 and the “Plant response rating (0 = no effect, 100 = complete control), Foxtail, Giant” value (giant foxtail; 62 g ai/ha, preemergence) was 20. For the same molecule, the “Plant response rating, Foxtail, Giant” value (giant foxtail; [4]) was 20, the “Plant response rating, Foxtail, Giant” value (giant foxtail; [5]) was 45 and the “Plant response rating (0 = no effect, 100 = complete control), Johnsongrass” value (johnsongrass; 62 g ai/ha, preemergence) was 15. The “Plant response rating, Johnsongrass” value (johnsongrass; [4]) was 40, the “Plant response rating (0 = no effect, 100 = complete control), Ragweed” value (common ragweed; 62 g ai/ha, preemergence) was 40 and the “Plant response rating, Ragweed” value (common ragweed; [4]) was 50. For the same molecule, the “Plant response rating (0 = no effect, 100 = complete control), Sunflower” value ([2]; 62 g ai/ha, preemergence) was 0, the “Plant response rating, Sunflower” value [2, 4] was 0 and the “Rice plant response rating” value (rice [3]; [6]) was 0. For the same molecule, the “Rice plant response rating” value (rice [3]; [7]) was 0, the “Rice plant response rating” value (rice [3]; [8]) was 0 and the “Plant response rating, Rice” value (rice [3]; [9]) was 10.
In the case of `C=CCNC(=O)c1cccc(NC(=O)c2sc(C(C)(C)C)nc2CC)c1` [Compound 207], the “Crabgrass, Large plant response rating” value (large crabgrass; Postemergence, 500 g ai/ha, 0 to 100 scale, 0 no effect, 100 complete control) is reported as 20, the “Plant response rating, Crabgrass, Large” value (large crabgrass; Postemergence, 2000 g ai/ha, 0 to 100 scale, 0 no effect, 100 complete control) is reported as 65 and the “Crabgrass, Large plant response rating” value (large crabgrass; Preemergence, 2000 g ai/ha, visual rating, 0 to 100 scale (0 no effect, 100 complete control)) is reported as 90. The “Crabgrass, Large plant response rating” value (large crabgrass; preemergence, 500 g ai/ha, visual injury, 0 to 100 scale (0 no effect, 100 complete control)) was 95, the “Rice plant response rating (0 to 100 scale)” value (rice [1]; 125 g ai/ha, 0 = no effect, 100 = complete control) was 50 and the “Plant response rating, Rice” value (rice [1]) was 70. The “Blackgrass plant response rating” value (blackgrass; 125 g ai/ha) was 0, the “Blackgrass plant response rating” value (blackgrass; 500 g ai/ha) was 10 and the “Ducksalad plant response rating” value (ducksalad) was 90. The “Plant response rating, Cocklebur” value (cocklebur; [10]) was 0, the “Plant response rating, Cocklebur” value (cocklebur; [4]) was 0 and the “Plant response rating, Cocklebur” value (cocklebur; [11]) was 0. For the same molecule, the “Cocklebur plant response rating” value (cocklebur; [12]) was 0, the “Plant response rating, Foxtail, Giant” value (giant foxtail; [10]) was 0 and the “Plant response rating, Foxtail, Giant” value (giant foxtail; [4]) was 0. For the same molecule, the “Plant response rating, Foxtail, Giant” value (giant foxtail; [11]) was 10, the “Foxtail, Giant plant response rating” value (giant foxtail; [12]) was 100 and the “Plant response rating, Johnsongrass” value (johnsongrass; [10]) was 0. The “Plant response rating, Johnsongrass” value (johnsongrass; [4]) was 10, the “Plant response rating, Johnsongrass” value (johnsongrass; [11]) was 40 and the “Johnsongrass plant response rating” value (johnsongrass; [12]) was 50. The “Plant response rating, Ragweed” value (common ragweed; [10]) was 40, the “Plant response rating, Ragweed” value (common ragweed; [4]) was 50 and the “Plant response rating, Ragweed” value (common ragweed; [11]) was 60. For the same molecule, the “Ragweed plant response rating” value (common ragweed; [12]) was 100, the “Plant response rating, Sunflower” value [2, 10] was 0 and the “Plant response rating, Sunflower” value [2, 4] was 0. The “Plant response rating, Sunflower” value [2, 11] was 0, the “Sunflower plant response rating” value [2, 12] was 0 and the “Rice plant response rating” value (rice [3]; [6]) was 30. The “Rice plant response rating” value (rice [3]; [7]) was 45, the “Rice plant response rating” value (rice [3]; [8]) was 50 and the “Plant response rating, Rice” value (rice [3]; [9]) was 60.
